From US9855245B2, “Methods for improving lipid profiles using atrasentan” (AbbVie Inc., priority 2013, dated 2018)
Values joined by “and” are separate entries in the source; they are usually repeats but may differ in a detail not shown here. Equal entries are not always repeated.

Tested on: subjects with type 2 diabetes and nephropathy
Experiment: Example 1: Phase 2b randomized, double-blind, placebo-controlled 12-week clinical study
Settings: for Weight, LS Mean Change from Baseline (SE): Week 12; for UACR Change from Baseline LS Mean (SE) / UACR Geometric Mean Change (Percent): baseline to final on-treatment measurement

CCCCN(CCCC)C(=O)CN1C[C@H](c2ccc3c(c2)OCO3)[C@@H](C(=O)O)[C@@H]1c1ccc(OC)cc1 [Atrasentan, (2R,3R,4S)-4-(1,3-benzodioxol-5-yl)-1-[2-(dibutylamino)-2-oxoethyl]-2-(4-methoxyphenyl)pyrrolidine-3-carboxylic acid]
Any adverse event (0.75 mg, N = 59): 37 (62.7) N (%) of Subjects
Any adverse event leading to discontinuation of study drug (0.75 mg, N = 59): 5 (8.5) N (%) of Subjects
Death (0.75 mg, N = 59): 0 N (%) of Subjects
Fatal adverse event (0.75 mg, N = 59): 0 N (%) of Subjects
Possibly or probably drug-related adverse event (0.75 mg, N = 59): 16 (27.1) N (%) of Subjects
Serious adverse event (0.75 mg, N = 59): 4 (6.8) N (%) of Subjects
Severe adverse event (0.75 mg, N = 59): 5 (8.5) N (%) of Subjects
Cholesterol, Difference (95% CI) from placebo (0.75 mg/day): −14.1 (−28.65, 0.53) mg/dL
Cholesterol, Final On-Treatment Visit Mean (SD) (0.75 mg/day): 148.9 (36.93) mg/dL
Cholesterol, LS Mean Change from Baseline (SE) (0.75 mg/day): −13.0 (3.93) mg/dL
HDL-C, Difference (95% CI) from placebo (0.75 mg/day): 0.2 (−3.68, 4.13) mg/dL
HDL-C, Final On-Treatment Visit Mean (SD) (0.75 mg/day): 42.1 (12.06) mg/dL
HDL-C, LS Mean Change from Baseline (SE) (0.75 mg/day): −2.2 (1.05) mg/dL
Had ≧30% Reduction in UACR and No Edema (no moderate or severe adverse event of edema) (0.75 mg/day): 27 (47.4) Number (%) of Subjects
Hemoglobin, Difference (95% CI) from placebo (0.75 mg/day): −0.94 (−1.423, −0.450) g/dL
Hemoglobin, LS Mean Change from Baseline (SE) (0.75 mg/day): −0.97 (0.126) g/dL
LDL-C, Difference (95% CI) from placebo (0.75 mg/day): −12.5 (−23.56, −1.41) mg/dL
LDL-C, Final On-Treatment Visit Mean (SD) (0.75 mg/day): 71.4 (27.39) mg/dL
LDL-C, LS Mean Change from Baseline (SE) (0.75 mg/day): −10.3 (3.01) mg/dL
Percentage of Subjects with ≧30% Reduction in Log-Transformed UACR from Baseline to Final Measurement (0.75 mg/day): 50.9%
Percentage of Subjects with ≧40% Reduction in Log-Transformed UACR from Baseline to Final Measurement (0.75 mg/day): 38.6%
Percentage of Subjects with ≧50% Reduction in Log-Transformed UACR from Baseline to Final Measurement (0.75 mg/day): 29.8%
Triglycerides, Difference (95% CI) from placebo (0.75 mg/day): −37.6 (−97.24, 22.01) mg/dL
Triglycerides, Final On-Treatment Visit Mean (SD) (0.75 mg/day): 179.9 (101.27) mg/dL
Triglycerides, LS Mean Change from Baseline (SE) (0.75 mg/day): −4.3 (16.05) mg/dL
Weight, Difference (95% CI) from placebo (0.75 mg/day): −0.1 (−2.32, 2.07) kg
Weight, Final On-Treatment Visit Mean (SD) (0.75 mg/day): 93.0 (21.28) kg
decrease in weight at Week 12 (0.75 mg/day): 0.8 kg
diastolic blood pressure, mean change from baseline to last on-treatment visit (0.75 mg/day): −1.49 mmHg
direct effect on change in UACR (path analysis vs change in systolic blood pressure) (0.75 mg/day): 97.52%
fatigue leading to discontinuation (0.75 mg/day): 1.7%
geometric mean reduction in UACR, baseline to final on-treatment measurement (0.75 mg/day): 37.7%
incidence of anemia (0.75 mg/day): 6.8%
incidence of peripheral edema (0.75 mg/day): 32.2%
mean changes in weight vs placebo (repeated-measures analysis) (0.75 mg/day): statistically significantly different from placebo only at Week 2
mean diastolic blood pressure, difference from baseline (0.75 mg/day): statistically significant at Weeks 1, 4, and 6
mean systolic blood pressure, difference from baseline (0.75 mg/day): statistically significant at Week 4
peripheral edema leading to discontinuation (0.75 mg/day): 3.4%
subjects discontinued because of an adverse event (0.75 mg/day): 5 subjects
subjects discontinued prematurely from the study (0.75 mg/day): 13.6%
subjects who discontinued study drug because of adverse events (0.75 mg/day): 8.5%
subjects with adverse event infection (0.75 mg/day): 3.4%
systolic blood pressure, mean change from baseline to last on-treatment visit (0.75 mg/day): −2.44 mmHg
weight, mean change from baseline to last on-treatment visit (0.75 mg/day): -1.20 kg
UACR Between-group Comparison Difference (90% CI) (0.75 mg/day vs placebo): −0.47 (−0.71, −0.22)
Weight, LS Mean Change from Baseline (SE) (0.75 mg/day): −0.8 (0.69) kg
UACR Change from Baseline LS Mean (SE) (0.75 mg/day): −0.47 (0.12) log mg/g creatinine
UACR Geometric Mean Change (Percent) (0.75 mg/day): −37.77%
Any adverse event (1.25 mg, N = 64): 47 (73.4) N (%) of Subjects
Any adverse event leading to discontinuation of study drug (1.25 mg, N = 64): 7 (10.9) N (%) of Subjects
Death (1.25 mg, N = 64): 0 N (%) of Subjects
Fatal adverse event (1.25 mg, N = 64): 0 N (%) of Subjects
Possibly or probably drug-related adverse event (1.25 mg, N = 64): 27 (42.2) N (%) of Subjects
Serious adverse event (1.25 mg, N = 64): 4 (6.3) N (%) of Subjects
Severe adverse event (1.25 mg, N = 64): 1 (1.6) N (%) of Subjects
Cholesterol, Difference (95% CI) from placebo (1.25 mg/day): −17.2 (−31.60, −2.88) mg/dL
Cholesterol, Final On-Treatment Visit Mean (SD) (1.25 mg/day): 147.6 (33.53) mg/dL
Cholesterol, LS Mean Change from Baseline (SE) (1.25 mg/day): −16.2 (3.75) mg/dL
HDL-C, Difference (95% CI) from placebo (1.25 mg/day): 2.2 (−1.61, 6.08) mg/dL
HDL-C, Final On-Treatment Visit Mean (SD) (1.25 mg/day): 43.4 (10.51) mg/dL
HDL-C, LS Mean Change from Baseline (SE) (1.25 mg/day): −0.2 (1.00) mg/dL
Had ≧30% Reduction in UACR and No Edema (no moderate or severe adverse event of edema) (1.25 mg/day): 28 (45.9) Number (%) of Subjects
Hemoglobin, Difference (95% CI) from placebo (1.25 mg/day): −0.98 (−1.462, −0.505) g/dL
Hemoglobin, Final On-Treatment Visit Mean (SD) (1.25 mg/day): 11.79 (1.702) g/dL
Hemoglobin, LS Mean Change from Baseline (SE) (1.25 mg/day): −1.02 (0.120) g/dL
LDL-C, Difference (95% CI) from placebo (1.25 mg/day): −13.1 (−23.98, −2.29) mg/dL
LDL-C, Final On-Treatment Visit Mean (SD) (1.25 mg/day): 69.5 (22.54) mg/dL
LDL-C, LS Mean Change from Baseline (SE) (1.25 mg/day): −11.0 (2.83) mg/dL
Percentage of Subjects with ≧30% Reduction in Log-Transformed UACR from Baseline to Final Measurement (1.25 mg/day): 52.5%
Percentage of Subjects with ≧40% Reduction in Log-Transformed UACR from Baseline to Final Measurement (1.25 mg/day): 36.1%
Percentage of Subjects with ≧50% Reduction in Log-Transformed UACR from Baseline to Final Measurement (1.25 mg/day): 29.5%
Triglycerides, Difference (95% CI) from placebo (1.25 mg/day): −64.6 (−123.32, −5.97) mg/dL
Triglycerides, Final On-Treatment Visit Mean (SD) (1.25 mg/day): 167.4 (84.98) mg/dL
Triglycerides, LS Mean Change from Baseline (SE) (1.25 mg/day): −31.4 (15.31) mg/dL
Weight, Final On-Treatment Visit Mean (SD) (1.25 mg/day): 92.6 (18.74) kg
diastolic blood pressure, mean change from baseline to last on-treatment visit (1.25 mg/day): −2.74 mmHg
fatigue leading to discontinuation (1.25 mg/day): 3.1%
geometric mean reduction in UACR, baseline to final on-treatment measurement (1.25 mg/day): 40.7%
incidence of anemia (1.25 mg/day): 4.7%
incidence of peripheral edema (1.25 mg/day): 42.2%
mean diastolic blood pressure, difference from baseline (1.25 mg/day): statistically significant from Weeks 1 through 10
mean increases in weight vs placebo (repeated-measures analysis) (1.25 mg/day): statistically significantly different from the mean changes with placebo from Week 1 through Week 8
mean systolic blood pressure, difference from baseline (1.25 mg/day): statistically significant at Weeks 1, 8, and 10
peripheral edema leading to discontinuation (1.25 mg/day): 4.7%
subjects discontinued because of an adverse event (1.25 mg/day): 7 subjects
subjects discontinued prematurely from the study (1.25 mg/day): 15.6%
subjects who discontinued study drug because of adverse events (1.25 mg/day): 10.9%
subjects with adverse event infection (1.25 mg/day): 0%
systolic blood pressure, mean change from baseline to last on-treatment visit (1.25 mg/day): −2.98 mmHg
triglycerides, difference from placebo (1.25 mg/day): statistically significant
weight, mean change from baseline to last on-treatment visit (1.25 mg/day): 2.02 kg
UACR Between-group Comparison Difference (90% CI) (1.25 mg/day vs placebo): −0.51 (−0.75, −0.28)
mean ambulatory systolic blood pressure, difference from placebo (1.25 mg/day, Week 6): statistically significant difference
Weight, LS Mean Change from Baseline (SE) (1.25 mg/day): 0.6 kg and 0.6 (0.66) kg
UACR Change from Baseline LS Mean (SE) (1.25 mg/day): −0.52 (0.11) log mg/g creatinine
UACR Geometric Mean Change (Percent) (1.25 mg/day): −40.67%
mean HDL-C change (all treatment groups, change not clinically meaningful): decreased slightly
hemoglobin relative to placebo (both atrasentan groups, at Week 2 and throughout the study): Statistically significantly mean decreases
